The values below come from ChEMBL document CHEMBL1157355, “Recent advances on phosphodiesterase 4 inhibitors for the treatment of asthma and chronic obstructive pulmonary disease” (J Med Chem, 2008).

Data set [1] is described as follows: Inhibition of PDE4.
The nature of data set [2]: Selectivity for PDE4D over PDE4A.
Data set [3] is described as follows: Selectivity for PDE4D over PDE4C.
Data set [4] can be described thus: Selectivity for PDE4D over PDE4B.
The next data set has as its system Blood. The experiment in a line: Inhibition of TNFalpha release in human whole blood. The format is functional, tissue-based. The following applies: read-out: IC50.
Data set [5] relates to Rattus norvegicus. The experiment in a line: Inhibition of gastric emptying in po dosed rat. In kind it is functional. As to conditions: Stomach, read-out: ID50 (the source's name).
Data set [6] is described as follows: Cmax in ferret. As to conditions: in vivo. The format is ADME, organism-based, Mustela putorius furo.
A short description of data set [7]: Inhibition of PDE3.
Data set [8] is described as follows: Inhibition of PDE5.
The nature of data set [9]: Inhibition of PDE1.
Data set [10] in a line: Displacement of [3H]rolipram from PDE4 by RBA. A general note: In a radioligand displacement assay an active substance lowers the binding of a labelled ligand.
In data set [11] the target is 3',5'-cyclic-AMP phosphodiesterase 4A (Homo sapiens, UniProt P27815). Kind of data set: Inhibition of GST-tagged PDE4A.
Chain of 3',5'-cyclic-AMP phosphodiesterase 4A (P27815 whole entry): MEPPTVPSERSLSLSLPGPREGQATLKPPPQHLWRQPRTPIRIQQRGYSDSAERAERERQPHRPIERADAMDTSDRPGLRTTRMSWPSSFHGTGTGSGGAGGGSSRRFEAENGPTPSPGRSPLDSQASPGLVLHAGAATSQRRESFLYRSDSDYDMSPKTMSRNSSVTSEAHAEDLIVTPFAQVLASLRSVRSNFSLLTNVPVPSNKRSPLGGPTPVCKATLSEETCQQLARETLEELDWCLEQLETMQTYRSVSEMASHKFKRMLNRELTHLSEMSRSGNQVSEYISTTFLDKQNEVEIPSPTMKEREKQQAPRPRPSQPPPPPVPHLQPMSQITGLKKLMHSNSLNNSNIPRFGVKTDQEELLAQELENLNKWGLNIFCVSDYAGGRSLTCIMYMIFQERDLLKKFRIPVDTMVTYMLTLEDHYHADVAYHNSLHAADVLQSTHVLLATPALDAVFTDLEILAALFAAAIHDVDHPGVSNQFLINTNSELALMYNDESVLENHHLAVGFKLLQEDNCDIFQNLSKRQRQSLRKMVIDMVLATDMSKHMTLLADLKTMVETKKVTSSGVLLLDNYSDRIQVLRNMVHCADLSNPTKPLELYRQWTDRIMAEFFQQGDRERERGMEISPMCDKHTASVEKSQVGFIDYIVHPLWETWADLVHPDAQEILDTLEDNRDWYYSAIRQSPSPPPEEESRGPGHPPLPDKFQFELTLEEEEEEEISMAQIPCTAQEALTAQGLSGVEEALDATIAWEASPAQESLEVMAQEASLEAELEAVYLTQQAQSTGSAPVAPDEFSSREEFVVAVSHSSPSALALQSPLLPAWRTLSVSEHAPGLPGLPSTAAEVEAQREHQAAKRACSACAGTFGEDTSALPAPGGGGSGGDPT
Data set [12] relates to Cavia porcellus. Kind of data set: Inhibition of ovalbumin-induced bronchoconstriction in guinea pig at 1 mg/kg, ip. In kind it is functional. As to conditions: route intraperitoneal.
Data set [13] is described as follows: Half life in rat. In kind it is ADME, organism-based. The following applies: in vivo.
Data set [14] concerns Ovis aries. Kind of data set: Inhibition of ascaris-induced bronchoconstriction in sheep at 2 mg/kg, iv. The format is functional.
Data set [15] has as its system Ovis aries. Kind of data set: Inhibition of ascaris-induced early bronchoconstriction in sheep at 0.5 mg/kg, iv. The format is functional.
Data set [16] can be described thus: Half life in dog. In kind it is ADME, organism-based, Canis lupus familiaris. As to conditions: in vivo.
Data set [17] deals with Cavia porcellus. The experiment in a line: Inhibition of ovalbumin-induced bronchoconstriction in guinea pig at 0.1 mg/kg, ip. In kind it is functional. As to conditions: route intraperitoneal.
Data set [18] in a line: Half life in squirrel monkey. The format is ADME, organism-based, Saimiri sciureus. The following applies: in vivo.
Data set [19] relates to Squirrel monkey. The experiment in a line: Inhibition of ascaris-induced bronchoconstriction in squirrel monkey at 3 mg/kg, po. As to conditions: Saimiri sciureus, in Primates. In kind it is functional.
Data set [20] has as its system Ovis aries. Kind of data set: Inhibition of ascaris-induced late bronchoconstriction in sheep at 0.5 mg/kg, iv. The format is functional.
Data set [21] in a line: Inhibition of PDE4 at 200 uM.
Data set [22] has as its system Cavia porcellus. The experiment in a line: Inhibition of lung eosinophila in guinea pig at 10 mg.kg, po. In kind it is functional.
Data set [23] can be described thus: Oral bioavailability in guinea pig at 3 mg/kg. The format is ADME, organism-based, Cavia porcellus. The following applies: in vivo.
In data set [24] the test system is Cavia porcellus. The experiment in a line: Inhibition of eosinophil infiltration in guinea pig at 30 umol/kg, ip. The format is functional.
The subject of data set [25] is Rattus norvegicus. The experiment in a line: Inhibition of TNFalpha production in rat at 10 mg/kg, po. In kind it is functional.
Data set [26] can be described thus: Oral bioavailability in dog. As to conditions: in vivo. In kind it is ADME, organism-based, Canis lupus familiaris.
The species named for another data set is Mustela putorius furo. Kind of data set: Plasma concentration in ferret. The following applies: in vivo. The format is ADME, organism-based.
Data set [27] has as its system Squirrel monkey. The experiment in a line: Inhibition of ascaris-induced bronchoconstriction in squirrel monkey at 0.5 mg/kg, po. The following applies: Saimiri sciureus, in Primates. The format is functional.
Data set [28] is described as follows: Oral bioavailability in rat at 3 mg/kg after 6 hrs. In kind it is ADME, organism-based. The following applies: in vivo.

What is called IC50 is the concentration needed to halve the response being measured. Turning to `COCc1cc2c(C(=O)Nc3c(Cl)cncc3Cl)ccc(OC)c2o1`, the IC50 in data set [1] is 0.4 nM.

`COc1ccc([C@]2(C#N)CC[C@@H](C(=O)O)CC2)cc1OC1CCCC1` [CILOMILAST]: the IC50 was found to be 65 nM in data set [1] and 0.84 µM with Blood. Further, the Selectivity ratio in data set [2], in data set [3] and in data set [4] was 10 each time. The ED50 in the data set with Rattus norvegicus [5] is 4.7 mg/kg.

As to `Cc1noc(/C(=C/c2cccc(-c3cc(C(C)(C)S(C)(=O)=O)cc4cccnc34)c2)c2ccc(S(C)(=O)=O)cc2)n1`, inhibition in [1] was half-maximal at 3 nM (IC50).

As a reminder, the Cmax is the peak of the concentration-time curve. `O=S(=O)(Nc1cccc(-c2cc(Cc3ccncc3)cc3cccnc23)c1)c1ccccc1` displayed a Cmax in data set [6] of 2000 nM. In addition, the IC50 in the data set with Blood came to 7.8 µM.

In the case of `CNc1nc(C(F)(F)F)nc2c1ncn2Cc1ccccc1F`, the IC50 in [1] amounted to 40 nM; in [7] it was 380 µM; in data set [8], 5 µM; in data set [9] it was 40 µM.

Take `CNc1nc(C(F)(F)F)nc2c(Cc3ccccc3OC)cnn12`: the IC50 in data set [1] came out at 11 nM.

By Ki is commonly meant the dissociation constant of the complex between target and ligand, obtained from inhibition or displacement. Molecule `COc1ccc([C@H](Cc2ccncc2)c2ccccc2)cc1OC1CCCC1` [CDP840] showed a Ki in [10] of 16 nM. For the same molecule, the IC50 in data set [11] is 4.2 nM.

Consider `CCCc1nc(NC)n2ncc(Cc3ccccc3OC)c2n1`, for which inhibition in [1] was half-maximal at 13 nM (IC50).

`Cc1ccccc1-n1c(=O)n(Cc2cccs2)c(=O)c2[nH]cnc21`: in data set [1], the IC50 amounted to 4200 nM. For the same molecule, the Ki in data set [10] worked out at 1020 nM.

One may read the inhibition in vivo as the change of the read-out against control, counted positive when it falls. As a reminder, the half-life is the time needed for the level to fall by half in the phase considered. For `[O-][n+]1ccc(CC(c2ccc(C(O)(C(F)(F)F)C(F)(F)F)cc2)c2ccc(OC(F)F)c(OC(F)F)c2)cc1` (stereo not drawn), 1 mg/kg produced 58% inhibition in vivo in the data set with Cavia porcellus [12]. The half-life in [13], in [16] and in data set [18] was over 2880 min in each case. Moreover, in the data set on Ovis aries [14], the inhibition in vivo at 2 mg/kg came to 85%. Also, the inhibition in vivo at 0.5 mg/kg in the data set on Ovis aries [15] is 64%; in the data set with Ovis aries [20], 97%. Further, in the data set on Cavia porcellus [17], at 0.1 mg/kg the inhibition in vivo was 54%. Besides, 3 mg/kg produced 96% inhibition in vivo in the data set with Squirrel monkey [19].

One may read the inhibition as the percentage by which the read-out fell short of the control. On to `Cn1c(=O)c2[nH]cnc2n(C)c1=O`, for which the inhibition in data set [21] turned out to be 39%.

For orientation: bioavailability means dose-corrected exposure relative to a reference, in per cent. For `COCc1cc2c(C(=O)Nc3c(Cl)cncc3Cl)cnc(OC)c2o1`, the results for the IC50 in [1] and in [10] were 14 nM and 84 nM, respectively. Also, the “inhibition (INH)” value in the data set on Cavia porcellus [22] worked out at 40%. Also, the bioavailability in [23] was 54%.

`COc1ccc2c(Cc3c(Cl)cncc3Cl)nnc(-n3cncn3)c2c1`: the inhibition in vivo at 30 µmol/kg in the data set on Cavia porcellus [24] was determined as 34%. Moreover, the IC50 in data set [1] stood at 241 nM; in the data set on Blood, 0.072 µM. The molecule further gave a Ki in [10] of 383 nM.

`Cc1nn(C)c2ncc(C(N)=O)c(Nc3ccccc3)c12` returned an IC50 in data set [1] of 40 nM. In addition, in the data set with Rattus norvegicus [25], testing at 10 mg/kg gave an inhibition in vivo of 48%.

Turning to `CCc1nn(C2CCCC2)c2c1CCn1c(-c3cccs3)nnc1-2` [TOFIMILAST], the bioavailability in data set [26] was found to be 3%. Further, the Cp in the data set filed under Mustela putorius furo was determined as 152 ng/mL.

Take `O=C1CCC(N2C(=O)c3ccccc3C2=O)C(=O)N1` (stereo not drawn) [THALIDOMIDE]: in the data set on Blood, the IC50 was found to be 200 µM.

As to `Cc1c[n+]([O-])ccc1CC(c1ccc(C(O)(C(F)(F)F)C(F)(F)F)cc1)c1ccc(OC(F)F)c(OC(F)F)c1` (stereo not drawn), the inhibition in vivo at 1 mg/kg with Cavia porcellus [12] stood at 82%. The molecule further showed an inhibition in vivo at 2 mg/kg in the data set on Ovis aries [14] of 62%. Also, the inhibition in vivo at 0.5 mg/kg with Squirrel monkey [27] is 26%. In data set [18], this molecule gave a half-life of 2160 min. Further, the bioavailability in [28] was 60%.

Turning to `COc1ccc(C(=O)Nc2c(Cl)c[n+]([O-])cc2Cl)c2ccc(C(F)(F)F)nc12` [SCH-351591], the results for the IC50 in data set [1] and in data set [10] were 60 nM and 150 nM, respectively.

As for `COc1cccc(-c2cc(Cc3ccncc3)cc3cccnc23)c1`, in data set [6], the Cmax was 200 nM. Also, the IC50 in the data set with Blood is 8.3 µM.

As to `CC(C)(Nc1ccc(C(Cc2cc[n+]([O-])cc2)c2ccc(OC(F)F)c(OC(F)F)c2)cc1)c1ccccc1` (stereo not drawn), the IC50 in data set [11] came to 0.8 nM.
